The NIST ThermoML archive (doi:10.1021/acs.jced.8b00552)
± gives the expanded uncertainty stated by the source.

Tests used:
[1] = Liquid, Ebulliometric method (Recirculating still)
[2] = refractive index (Na D-line) (dimensionless); details: 293.15 K; 101.33 kPa; Liquid; Standard Abbe refractometry

refractive index [2]	Compound	vapor or sublimation pressure ([1]; 332.65 K) [kPa]	vapor or sublimation pressure ([1]; 342.63 K) [kPa]	vapor or sublimation pressure ([1]; 349.06 K) [kPa]	vapor or sublimation pressure ([1]; 333.65 K) [kPa]	vapor or sublimation pressure ([1]; 343.55 K) [kPa]	vapor or sublimation pressure ([1]; 348.55 K) [kPa]
1.3957 ± 0.002	CC(C)CO [2-methyl-1-propanol]	12.17 ± 0.63	20.07 ± 0.63	26.53 ± 0.64			
1.41 ± 0.002	CCCCCO [pentan-1-ol]				3.43 ± 0.62	5.9 ± 0.62	7.67 ± 0.62

Compound	refractive index [2]	vapor or sublimation pressure ([1]; 332.65 K) [kPa]	vapor or sublimation pressure ([1]; 342.63 K) [kPa]	vapor or sublimation pressure ([1]; 349.06 K) [kPa]	vapor or sublimation pressure ([1]; 333.65 K) [kPa]	vapor or sublimation pressure ([1]; 343.55 K) [kPa]	vapor or sublimation pressure ([1]; 348.55 K) [kPa]
CCC(C)=O [butanone]	1.3791 ± 0.002	51.76 ± 0.63	72.71 ± 0.7	90.1 ± 0.79	52.42 ± 0.63	74.79 ± 0.7	88.29 ± 0.79
